The text below walks through data of ChEMBL document CHEMBL4507293 (2021).

A word on the Ki: it is a dissociation constant, usually derived from enzyme kinetics or from competition with a known ligand. One may read the residual activity as the activity still measured, relative to the control. A word on the inhibition: it is the change of the read-out against control, counted positive when it falls.

The target of series [1] is 5-hydroxytryptamine receptor 7 (Homo sapiens, UniProt P34969). The series is described as follows: GPCRScan assay: inhibition of 5-HT7A. More on the design: radioligand conc. used [nm] 5.0 – 6.0, parental cells Stable HEK.
5-hydroxytryptamine receptor 7, sequence (P34969 whole entry): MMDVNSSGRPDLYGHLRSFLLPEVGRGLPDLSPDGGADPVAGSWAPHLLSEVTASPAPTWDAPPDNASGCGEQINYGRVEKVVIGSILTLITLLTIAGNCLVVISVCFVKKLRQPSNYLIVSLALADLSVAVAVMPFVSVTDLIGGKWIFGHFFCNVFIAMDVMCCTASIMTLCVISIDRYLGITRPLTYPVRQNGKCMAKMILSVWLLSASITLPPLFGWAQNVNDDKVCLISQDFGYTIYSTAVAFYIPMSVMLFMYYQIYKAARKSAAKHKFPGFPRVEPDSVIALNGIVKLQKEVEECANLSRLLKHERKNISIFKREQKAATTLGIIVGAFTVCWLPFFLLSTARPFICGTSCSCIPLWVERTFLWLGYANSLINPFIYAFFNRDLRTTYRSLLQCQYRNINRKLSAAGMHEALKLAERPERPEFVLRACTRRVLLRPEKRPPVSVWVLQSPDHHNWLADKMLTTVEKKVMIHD
Series [2] has as its target Citron Rho-interacting kinase (Homo sapiens) (UniProt O14578). Conditions: Compound concentration 100.0 nM; call rule not given here.
Series [3] addresses Alpha-2A adrenergic receptor (Homo sapiens) (UniProt P08913). Conditions: Compound concentration 10.0 uM.
For series [4], the species on record is Rattus norvegicus. Description: Protein Serine/Threonine Kinase, PKC, Non-Selective Eurofins-Panlabs enzyme assay. Conditions: Compound concentration 10.0 uM.
In series [5] the target is Sodium-dependent dopamine transporter (Homo sapiens) (UniProt Q01959). Conditions: Compound concentration 10.0 uM.
Series [6] deals with T1, Alpha-1A adrenergic receptor (Homo sapiens) (UniProt P35348).
T1 sequence (whole entry): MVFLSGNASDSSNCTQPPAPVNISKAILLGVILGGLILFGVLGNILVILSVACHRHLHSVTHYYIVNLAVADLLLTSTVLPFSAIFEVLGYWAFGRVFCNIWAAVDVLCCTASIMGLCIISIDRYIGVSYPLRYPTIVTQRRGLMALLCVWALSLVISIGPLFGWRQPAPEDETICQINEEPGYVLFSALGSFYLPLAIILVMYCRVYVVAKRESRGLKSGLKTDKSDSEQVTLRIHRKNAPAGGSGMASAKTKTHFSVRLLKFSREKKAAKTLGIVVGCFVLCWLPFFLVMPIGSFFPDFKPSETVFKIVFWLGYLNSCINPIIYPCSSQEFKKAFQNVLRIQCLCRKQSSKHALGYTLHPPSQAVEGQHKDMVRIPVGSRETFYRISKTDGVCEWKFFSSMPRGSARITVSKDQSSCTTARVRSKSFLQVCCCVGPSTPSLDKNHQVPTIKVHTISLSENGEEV
Conditions: Rattus norvegicus; Compound concentration 10.0 uM.

The species entered for the next series is Homo sapiens. The series is described as follows: Glutamate, Metabotropic, mGlu5 Eurofins-Panlabs radioligand binding assay. Conditions: Compound concentration 10.0 uM.
Series [7] has as its target C-C chemokine receptor type 1 (Homo sapiens) (UniProt P32246). Description: Chemokine CCR1 Eurofins-Panlabs radioligand binding assay. Conditions: Compound concentration 10.0 uM.
Series [8] has as its target Adenosine receptor A1 (Homo sapiens) (UniProt P30542). Conditions: Compound concentration 10.0 uM.
For series [9], the species on record is Rattus norvegicus. Conditions: Compound concentration 10.0 uM.
The target of series [10] is Glutamate NMDA receptor (Rattus norvegicus) (UniProt P35439+Q00959+Q00960+Q00961+Q62645+Q8VHN2+Q9R1M7). Conditions: Compound concentration 10.0 uM.
The species named for series [11] is Rattus norvegicus. Description: GABAA, Ro-15-1788, Hippocampus Eurofins-Panlabs radioligand binding assay. More on the design: ligand concentration 1 nM. Conditions: Compound concentration 10.0 uM.
For another series, the target named is Caspase-8 (Homo sapiens) (UniProt Q14790). The series is described as follows: Peptidase, CASP8 (Caspase 8) Eurofins-Panlabs enzyme assay. Conditions: Compound concentration 10.0 uM.
Caspase-8 (Homo sapiens), sequence (Q14790 217-374 limits assumed): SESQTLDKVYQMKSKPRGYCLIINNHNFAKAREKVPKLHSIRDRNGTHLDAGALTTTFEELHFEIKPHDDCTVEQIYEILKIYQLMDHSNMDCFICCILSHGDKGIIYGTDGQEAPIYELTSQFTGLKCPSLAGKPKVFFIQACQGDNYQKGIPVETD
Caspase-8 (Homo sapiens), sequence (Q14790 385-479 limits assumed): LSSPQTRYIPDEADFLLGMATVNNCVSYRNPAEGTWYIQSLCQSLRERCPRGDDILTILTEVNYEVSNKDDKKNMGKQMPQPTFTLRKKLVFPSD
Series [12] deals with Alpha-1D adrenergic receptor (Homo sapiens) (UniProt P25100). The series is described as follows: Inhibition of Adrenergic alpha1D at 10 µM in the Eurofins-Panlabs radioligand binding assay (Eurofins_assay_203400). Conditions: Compound concentration 10.0 uM.
Alpha-1D adrenergic receptor (Homo sapiens), sequence (P25100 whole entry): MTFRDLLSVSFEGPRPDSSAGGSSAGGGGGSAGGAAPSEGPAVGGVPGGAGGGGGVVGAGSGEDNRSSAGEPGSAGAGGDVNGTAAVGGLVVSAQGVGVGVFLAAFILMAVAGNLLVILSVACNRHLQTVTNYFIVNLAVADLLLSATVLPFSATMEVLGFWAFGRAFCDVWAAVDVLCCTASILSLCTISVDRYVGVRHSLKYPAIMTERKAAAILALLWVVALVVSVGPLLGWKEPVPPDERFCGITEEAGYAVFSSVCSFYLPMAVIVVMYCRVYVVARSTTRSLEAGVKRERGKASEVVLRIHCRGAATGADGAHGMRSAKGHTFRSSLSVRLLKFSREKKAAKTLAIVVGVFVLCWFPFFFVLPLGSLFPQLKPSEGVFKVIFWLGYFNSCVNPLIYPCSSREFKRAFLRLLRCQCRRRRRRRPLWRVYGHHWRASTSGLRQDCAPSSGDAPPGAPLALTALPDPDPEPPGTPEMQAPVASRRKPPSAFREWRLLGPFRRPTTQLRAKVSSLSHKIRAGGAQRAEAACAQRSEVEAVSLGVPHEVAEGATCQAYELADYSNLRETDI
The target of series [13] is B2 bradykinin receptor (Homo sapiens) (UniProt P30411). The series is described as follows: Bradykinin B2 Eurofins-Panlabs radioligand binding assay. Conditions: Compound concentration 10.0 uM.
Series [14] concerns the target T2, 5-hydroxytryptamine receptor 2C (Homo sapiens) (UniProt P28335).
T2 sequence (whole entry): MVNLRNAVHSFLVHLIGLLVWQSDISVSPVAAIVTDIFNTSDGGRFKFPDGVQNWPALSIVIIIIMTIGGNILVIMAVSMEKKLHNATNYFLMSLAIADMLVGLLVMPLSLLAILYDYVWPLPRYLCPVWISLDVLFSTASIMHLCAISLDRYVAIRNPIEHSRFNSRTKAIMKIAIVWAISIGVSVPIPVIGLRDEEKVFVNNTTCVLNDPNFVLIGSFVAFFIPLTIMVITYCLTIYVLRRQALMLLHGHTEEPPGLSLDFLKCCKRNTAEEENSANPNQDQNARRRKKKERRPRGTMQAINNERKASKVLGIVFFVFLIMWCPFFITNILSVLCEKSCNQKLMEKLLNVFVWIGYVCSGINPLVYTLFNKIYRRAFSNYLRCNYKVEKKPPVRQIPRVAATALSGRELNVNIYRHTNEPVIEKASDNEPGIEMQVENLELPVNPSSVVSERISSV
Conditions: Compound concentration 10.0 uM.

In series [15] the target is Kappa-type opioid receptor (Homo sapiens) (UniProt P41145). Conditions: Compound concentration 10.0 uM.
For series [16], the target named is Neurotensin receptor type 1 (Homo sapiens) (UniProt P30989). Description: Neurotensin NT1 Eurofins-Panlabs radioligand binding assay. Conditions: Compound concentration 10.0 uM. The arrangement: ligand concentration 0.02 nM, non-specific ligand with concentration 1 µM Neurotensin, incubation time 45 min, incubation temperature 25 °C.
In series [17] the target is Melanocortin receptor 4 (Homo sapiens) (UniProt P32245). Description: Inhibition of Melanocortin MC4 at 10 µM in the Eurofins-Panlabs radioligand binding assay (Eurofins_assay_251350). Conditions: Compound concentration 10.0 uM. More on the design: ligand concentration 0.02 nM.
Series [18] addresses Melanocyte-stimulating hormone receptor (Homo sapiens) (UniProt Q01726). Description: Melanocortin MC1 Eurofins-Panlabs radioligand binding assay. Conditions: Compound concentration 10.0 uM.
Series [19] has as its target Mitogen-activated protein kinase 3 (Homo sapiens) (UniProt P27361). The series is described as follows: Inhibition of Protein Serine/Threonine Kinase, MAPK3 (ERK1) at 10 µM in the Eurofins-Panlabs enzyme assay (Eurofins_assay_171000). Conditions: Compound concentration 10.0 uM.
The target in series [20] is Corticotropin-releasing factor receptor 1 (Homo sapiens) (UniProt P34998). Description: Corticotropin Releasing Factor CRF1 Eurofins-Panlabs radioligand binding assay. Conditions: Compound concentration 10.0 uM.
Series [21] addresses Monoamine oxidase B (MAO-B) (Homo sapiens, UniProt P27338). Description: Inhibition of Monoamine Oxidase MAO-B at compound concentration of 10.0 uM in the Eurofins-Panlabs enzyme assay (Eurofins_assay_140120). Conditions: recombinant human MAO-B expressed in insect Hi5 cells, probe kynuramine, compound concentration 10 uM. The arrangement: substrate with concentration 50 uM Kynuramine, incubation time 60 min, incubation temperature 37 C.

The target of series [22] is Purinergic P2Y (Rattus norvegicus) (UniProt O35811+Q9EPX4+P49651+Q63371+P41232+O35881+Q6GUG4). Conditions: Compound concentration 10.0 uM.
In series [23] the target is Monoamine oxidase A (MAO-A) (Homo sapiens, UniProt P21397). The series is described as follows: Inhibition of Monoamine Oxidase MAO-A at compound concentration of 10.0 uM in the Eurofins-Panlabs enzyme assay (Eurofins_assay_140010). Conditions: recombinant human MAO-A expressed in insect Hi5 cells, probe kynuramine, compound concentration 10 uM. More on the design: substrate with concentration 50 uM Kynuramine, incubation time 60 min, incubation temperature 37 C.

Series [24] has as its target Glutamate receptor ionotropic, kainate (Rattus norvegicus) (UniProt P22756+Q01812+P42260+P42264+Q63273). The series is described as follows: Inhibition of Glutamate, Kainate at 10 µM in the Eurofins-Panlabs radioligand binding assay (Eurofins_assay_232700). Conditions: Compound concentration 10.0 uM.
Series [25] concerns the target Substance-P receptor (Homo sapiens) (UniProt P25103). The series is described as follows: Tachykinin NK1 Eurofins-Panlabs radioligand binding assay. Conditions: Compound concentration 10.0 uM.

Substance-P receptor (Homo sapiens), sequence (P25103 whole entry): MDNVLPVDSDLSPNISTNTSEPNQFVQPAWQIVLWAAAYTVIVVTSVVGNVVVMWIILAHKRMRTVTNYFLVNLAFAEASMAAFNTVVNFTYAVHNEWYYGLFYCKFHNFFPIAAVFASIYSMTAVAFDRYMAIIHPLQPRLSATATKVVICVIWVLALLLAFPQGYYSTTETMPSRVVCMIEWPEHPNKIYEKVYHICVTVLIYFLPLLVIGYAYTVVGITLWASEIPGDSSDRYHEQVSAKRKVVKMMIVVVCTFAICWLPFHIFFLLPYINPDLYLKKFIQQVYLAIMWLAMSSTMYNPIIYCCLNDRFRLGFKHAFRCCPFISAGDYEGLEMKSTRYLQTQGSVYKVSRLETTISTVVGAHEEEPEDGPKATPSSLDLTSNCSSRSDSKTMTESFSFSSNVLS
C-C chemokine receptor type 1 (Homo sapiens), sequence (P32246 whole entry): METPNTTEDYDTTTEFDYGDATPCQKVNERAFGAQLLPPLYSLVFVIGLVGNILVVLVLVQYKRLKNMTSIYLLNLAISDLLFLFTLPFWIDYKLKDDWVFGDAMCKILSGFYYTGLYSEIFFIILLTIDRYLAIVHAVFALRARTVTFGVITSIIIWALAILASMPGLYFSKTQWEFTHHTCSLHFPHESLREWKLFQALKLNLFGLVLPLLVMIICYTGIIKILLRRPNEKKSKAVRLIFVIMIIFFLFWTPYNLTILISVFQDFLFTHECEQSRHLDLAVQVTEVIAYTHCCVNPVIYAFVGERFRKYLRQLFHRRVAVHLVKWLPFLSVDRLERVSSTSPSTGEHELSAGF
Citron Rho-interacting kinase (Homo sapiens), sequence (O14578 whole entry): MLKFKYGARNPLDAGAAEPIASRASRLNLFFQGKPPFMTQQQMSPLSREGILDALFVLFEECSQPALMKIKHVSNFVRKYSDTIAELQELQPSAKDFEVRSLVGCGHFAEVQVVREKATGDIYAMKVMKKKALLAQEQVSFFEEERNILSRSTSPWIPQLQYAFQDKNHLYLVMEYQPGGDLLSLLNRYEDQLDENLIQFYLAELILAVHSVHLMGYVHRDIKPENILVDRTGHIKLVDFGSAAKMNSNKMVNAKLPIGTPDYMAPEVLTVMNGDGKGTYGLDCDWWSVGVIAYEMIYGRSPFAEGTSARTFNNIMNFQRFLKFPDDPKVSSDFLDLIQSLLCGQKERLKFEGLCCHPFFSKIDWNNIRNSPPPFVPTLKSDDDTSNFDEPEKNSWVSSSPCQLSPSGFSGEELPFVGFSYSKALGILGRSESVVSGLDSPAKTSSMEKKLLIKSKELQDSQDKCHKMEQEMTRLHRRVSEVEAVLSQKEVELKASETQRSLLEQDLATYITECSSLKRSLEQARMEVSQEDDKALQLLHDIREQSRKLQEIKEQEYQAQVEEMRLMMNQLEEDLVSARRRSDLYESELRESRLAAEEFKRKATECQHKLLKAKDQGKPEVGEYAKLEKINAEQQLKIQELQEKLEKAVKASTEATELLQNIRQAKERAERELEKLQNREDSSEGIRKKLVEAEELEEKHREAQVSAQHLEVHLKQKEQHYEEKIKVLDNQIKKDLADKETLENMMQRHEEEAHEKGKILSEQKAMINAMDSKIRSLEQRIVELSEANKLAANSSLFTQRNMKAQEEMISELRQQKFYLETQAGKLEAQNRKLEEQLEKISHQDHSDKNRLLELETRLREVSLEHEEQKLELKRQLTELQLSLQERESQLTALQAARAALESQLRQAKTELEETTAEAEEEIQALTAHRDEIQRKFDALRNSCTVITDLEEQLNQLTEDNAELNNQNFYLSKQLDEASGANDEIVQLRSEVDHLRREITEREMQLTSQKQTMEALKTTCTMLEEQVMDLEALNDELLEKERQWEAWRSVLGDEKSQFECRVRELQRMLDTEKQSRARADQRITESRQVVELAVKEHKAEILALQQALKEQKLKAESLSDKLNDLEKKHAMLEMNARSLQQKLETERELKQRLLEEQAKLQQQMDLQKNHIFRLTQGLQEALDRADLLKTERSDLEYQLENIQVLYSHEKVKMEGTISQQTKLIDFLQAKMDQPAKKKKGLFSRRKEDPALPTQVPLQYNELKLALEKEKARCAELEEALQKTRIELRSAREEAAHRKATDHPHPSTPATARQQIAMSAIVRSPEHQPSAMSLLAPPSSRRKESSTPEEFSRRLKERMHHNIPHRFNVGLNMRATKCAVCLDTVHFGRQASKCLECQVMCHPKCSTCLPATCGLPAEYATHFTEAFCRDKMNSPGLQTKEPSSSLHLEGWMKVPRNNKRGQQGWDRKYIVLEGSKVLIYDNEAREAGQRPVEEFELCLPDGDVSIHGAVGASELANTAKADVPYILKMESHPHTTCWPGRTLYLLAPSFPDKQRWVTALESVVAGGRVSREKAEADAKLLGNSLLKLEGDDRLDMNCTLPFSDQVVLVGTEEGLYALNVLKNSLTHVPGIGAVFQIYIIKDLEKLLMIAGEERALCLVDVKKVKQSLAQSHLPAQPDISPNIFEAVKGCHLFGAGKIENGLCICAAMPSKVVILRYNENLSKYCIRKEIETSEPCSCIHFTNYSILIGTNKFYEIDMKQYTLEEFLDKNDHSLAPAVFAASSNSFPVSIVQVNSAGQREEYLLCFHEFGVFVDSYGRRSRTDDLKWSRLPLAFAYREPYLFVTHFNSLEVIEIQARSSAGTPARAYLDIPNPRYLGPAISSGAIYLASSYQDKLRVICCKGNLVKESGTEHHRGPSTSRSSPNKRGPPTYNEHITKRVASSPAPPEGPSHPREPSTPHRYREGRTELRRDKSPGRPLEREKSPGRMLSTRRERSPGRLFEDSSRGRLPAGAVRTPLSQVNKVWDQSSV
Adenosine receptor A1 (Homo sapiens), sequence (P30542 whole entry): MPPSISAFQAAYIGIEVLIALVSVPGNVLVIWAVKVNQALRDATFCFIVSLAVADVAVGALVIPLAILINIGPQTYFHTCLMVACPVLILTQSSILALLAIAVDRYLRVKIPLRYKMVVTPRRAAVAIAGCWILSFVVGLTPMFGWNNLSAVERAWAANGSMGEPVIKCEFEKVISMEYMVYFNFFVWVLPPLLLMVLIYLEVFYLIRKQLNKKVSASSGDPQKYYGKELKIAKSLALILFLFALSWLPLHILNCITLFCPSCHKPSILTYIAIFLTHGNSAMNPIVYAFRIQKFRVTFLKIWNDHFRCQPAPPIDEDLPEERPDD
Alpha-2A adrenergic receptor (Homo sapiens), sequence (P08913 whole entry): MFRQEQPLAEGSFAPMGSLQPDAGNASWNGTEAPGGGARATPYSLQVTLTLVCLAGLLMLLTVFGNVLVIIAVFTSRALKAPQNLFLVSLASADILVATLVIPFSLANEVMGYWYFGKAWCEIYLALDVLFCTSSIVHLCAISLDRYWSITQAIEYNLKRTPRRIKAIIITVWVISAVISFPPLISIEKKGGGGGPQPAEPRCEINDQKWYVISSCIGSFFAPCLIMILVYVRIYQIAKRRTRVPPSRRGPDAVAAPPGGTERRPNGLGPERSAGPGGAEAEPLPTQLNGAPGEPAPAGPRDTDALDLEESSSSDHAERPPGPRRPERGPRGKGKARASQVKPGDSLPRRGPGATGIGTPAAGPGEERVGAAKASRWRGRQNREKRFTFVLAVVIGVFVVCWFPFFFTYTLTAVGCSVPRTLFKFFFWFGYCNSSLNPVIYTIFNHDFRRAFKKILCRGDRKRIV

On to `CC(C)CC(=O)N1CCc2nc(-c3ccc(Br)cc3)nc(N(C)Cc3ccccc3)c2C1` [THPP-1-NC], for which, in [1], the Ki stood at 578 nM. The residual activity in [2] was 100%. In addition, the inhibition in series [3] was 48.4%.
On to `COCCOc1nc(-c2ccc(Cl)nc2)nc2c1CN(C(=O)c1ncn3ccccc13)CC2` [THPP-1], for which the inhibition in the series filed under Rattus norvegicus [4] is 12%; in series [5], -3%; in series [6] it was 9%; in the series listed under Homo sapiens, 22%; in [7], 11%; in series [8] it was 37%. The inhibition in the series filed under Rattus norvegicus [9] is -9%; in [10], 0%; in the series listed under Rattus norvegicus [11], 37%; at Caspase-8 (Homo sapiens) it was -3%; in series [12], 45%; in series [13] it was 13%. The inhibition is 22% in [14]; 2% in [15]; 10% in series [16]; 8% in series [17]; 23% in [18]; 6% in [19]. Moreover, the inhibition is 12% in series [20], 5% in series [22], 9% in series [24] and 8% in [25]. Also, the inhibition at 60 min, 10 µM in series [21] is 32% (not active); in series [23] it was 42% (not active).
